The values below come from patent US12570683B2, “Polymorphic form of reduced beta-nicotinamide mononucleotide disodium salt, and preparation method therefor and use thereof” (EFFEPHARM (SHANGHAI) CO., LTD., priority 2022, dated 2026).

What all share (format): physicochemical
The nature of data set [1]: Exposure in air at 2-8° C., relative humidity 70-80% (crystal form transformation by absorbing water). Particulars: RH 70-80%. From the text:
Moisture (KF) determination method: MC-2000 automatic micro-moisture tester from Min Measure Instrument and Equipment (Xiamen) Co., Ltd. and Karl Fischer reagent from Nanjing Chemical Reagent Co., Ltd.

Data set [2] in a line: Stability, placed openly in stability chamber at 4° C. and 75% RH. Particulars: open.
A short description of data set [3]: Stability, placed openly in stability chamber at 25° C. and 65% RH. Conditions: open.
Setting [4] is: 0 day, listed as amorphous solid, disodium salt.
Setting [5] is: 1 day, listed as amorphous solid, disodium salt.

Each structure is given as a SMILES string.

Turning to `NC(=O)C1=CN([C@@H]2O[C@H](COP(=O)([O-])[O-])[C@@H](O)[C@H]2O)C=CC1.[Na+].[Na+]` [crystal form B, reduced β-nicotinamide mononucleotide disodium salt], in data set [1] (after 30 days), the “Moisture (KF) after exposure” value came to 29% and the “Resulting solid crystal form” value is “crystal form A”.
As for `NC(=O)C1=CN([C@@H]2O[C@H](COP(=O)([O-])[O-])[C@@H](O)[C@H]2O)C=CC1.[Na+].[Na+]` [Crystal form A, reduced β-nicotinamide mononucleotide disodium salt], the “NMNH disodium salt purity (HPLC, % area)” value in data set [2] (0 day, disodium salt) is given as 99.33 % area; in data set [2] (5 day, disodium salt) it was 99.35 % area; in data set [2] (18 day, disodium salt), 99.33 % area; in data set [2] (18 day, listed as crystal form A, disodium salt) it was 99.33 % area; in data set [3] (0 day, disodium salt), 99.33 % area; in data set [3] (0 day, listed as crystal form A, disodium salt) it was 99.33 % area. The “NMNH disodium salt purity (HPLC, % area)” value in data set [3] (1 day, disodium salt) worked out at 99.27 % area; in data set [3] (5 day), 99.01 % area. Besides, the Appearance of solid result is reported as “still a crystal powder” in data set [2] (18 days, disodium salt) and “still a crystal powder” in data set [3] (5 days).
With `NC(=O)C1=CN([C@@H]2O[C@H](COP(=O)([O-])[O-])[C@@H](O)[C@H]2O)C=CC1.[Na+].[Na+]` [crystal form C, reduced β-nicotinamide mononucleotide disodium salt], in data set [1] (after 24 hours), the “Moisture (KF) after exposure” value stood at 24% and the “Resulting solid crystal form” value was “crystal form A”.
On to `NC(=O)C1=CN([C@@H]2O[C@H](COP(=O)([O-])[O-])[C@@H](O)[C@H]2O)C=CC1.[Na+].[Na+]` [Amorphous Solids, reduced β-nicotinamide mononucleotide disodium salt], for which the “NMNH disodium salt purity (HPLC, % area)” value in data set [2] (0 day, disodium salt) worked out at 99.30 % area; in data set [2] (setting [4]), 99.30 % area; in data set [2] (5 day, disodium salt) it was 99.26 % area; in data set [2] (5 day, listed as amorphous solid, disodium salt), 99.26 % area; in data set [2] (18 day, disodium salt), 99.17 % area; in data set [2] (18 day, listed as amorphous solid, disodium salt), 99.17 % area. The “NMNH disodium salt purity (HPLC, % area)” value is reported as 99.30 % area in data set [3] (0 day, disodium salt); 99.30 % area in data set [3] (setting [4]); 99.02 % area in data set [3] (1 day, disodium salt); 99.02 % area in data set [3] (setting [5]). The Appearance of solid result in data set [2] (5 days) was “the powder solid absorbed water and became viscous to form a mass”; in data set [2] (18 days, disodium salt), “the color became darker”; in data set [3] (0 day), “(powders)”; in data set [3] (1 day, disodium salt), “(oil)”; in data set [3] (setting [5]) it was “the powder absorbed water and turned into an oil”.
